Results from paper PMC9908026 (Science Advances, 2023).

Biological target: T1, EcGlyRS ((αβ)2 orphan GlyRS, full-length; EcGlyRS_FL) (Escherichia coli, UniProt P00960)
T1 construct: gene glyQ; full-length α and β subunits co-expressed in E. coli BL21(DE3); C-terminal His6 tag on β, no cleavage told; (αβ)2 heterotetramer; with Glycine--tRNA ligase beta subunit
T1 sequence (P00960 1-303): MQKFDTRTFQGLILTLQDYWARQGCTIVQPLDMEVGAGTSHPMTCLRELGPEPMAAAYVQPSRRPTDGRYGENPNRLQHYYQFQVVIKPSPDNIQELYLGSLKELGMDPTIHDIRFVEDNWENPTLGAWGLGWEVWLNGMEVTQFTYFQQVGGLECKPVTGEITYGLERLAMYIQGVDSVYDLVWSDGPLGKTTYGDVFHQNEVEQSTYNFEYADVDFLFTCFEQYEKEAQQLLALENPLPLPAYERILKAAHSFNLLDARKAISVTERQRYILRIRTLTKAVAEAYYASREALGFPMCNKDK
T1 sequence (P00961 2-689 partner): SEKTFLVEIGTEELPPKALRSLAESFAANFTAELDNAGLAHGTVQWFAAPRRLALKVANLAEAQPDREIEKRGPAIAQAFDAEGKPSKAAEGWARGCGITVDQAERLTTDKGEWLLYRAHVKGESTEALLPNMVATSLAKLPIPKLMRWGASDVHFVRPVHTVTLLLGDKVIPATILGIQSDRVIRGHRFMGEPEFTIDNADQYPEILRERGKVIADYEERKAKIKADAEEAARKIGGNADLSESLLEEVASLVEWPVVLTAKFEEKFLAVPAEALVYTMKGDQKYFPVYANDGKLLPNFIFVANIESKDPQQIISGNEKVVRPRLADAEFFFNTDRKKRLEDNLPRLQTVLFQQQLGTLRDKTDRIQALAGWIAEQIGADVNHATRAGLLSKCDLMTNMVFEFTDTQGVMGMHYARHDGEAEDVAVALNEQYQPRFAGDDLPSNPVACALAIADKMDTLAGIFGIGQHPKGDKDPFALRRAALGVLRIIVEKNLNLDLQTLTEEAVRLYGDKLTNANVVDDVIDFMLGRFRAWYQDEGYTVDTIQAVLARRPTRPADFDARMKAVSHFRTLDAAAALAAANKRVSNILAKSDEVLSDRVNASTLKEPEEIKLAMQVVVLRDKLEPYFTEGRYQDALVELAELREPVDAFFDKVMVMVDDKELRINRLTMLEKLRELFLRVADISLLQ
Test: ATP consumption assay (Kinase-Glo luminescence)
Type: biochemical
Conditions: 4 μM ATP, 500 μM glycine, tRNA-Gly(GCC) 0.25 mg/ml, 40 mM MgCl2, pH 7.5, room temperature; 50 nM enzyme

Compound: Nc1ncnc2c1ncn2[C@@H]1O[C@H](COP(=O)(O)OP(=O)(O)OP(=O)(O)O)[C@@H](O)[C@H]1O [ATP]
- ATP consumption assay (Kinase-Glo luminescence): An ATP consumption assay was used to evaluate the aminoacylation activity of EcGlyRS on tRNA^Gly
